Results: article doi:10.1101/2021.04.29.441652v1 (biorxiv, 2021)

biological target: human σ2 receptor (TMEM97) (Homo sapiens, UniProt Q5BJF2); test: biochemical; format: Expi293 membranes; details: read-out: % of control remaining
Sequence (Q5BJF2 whole entry): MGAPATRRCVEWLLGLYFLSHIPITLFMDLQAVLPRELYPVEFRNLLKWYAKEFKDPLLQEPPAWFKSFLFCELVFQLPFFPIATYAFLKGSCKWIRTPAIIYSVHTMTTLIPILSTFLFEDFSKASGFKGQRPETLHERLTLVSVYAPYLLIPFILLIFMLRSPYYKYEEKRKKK

First: CCC(C)(C)N1CCN(c2nc(N)nc(C(F)(F)C(F)(F)F)n2)CC1 [ZINC000894427229]
Second: CCC(C)(C)N1CCN(c2cc(C(F)F)ncn2)CC1 [ZINC000894429059]
The remaining activity at 1 µM of the first is higher: 38.7% for the first, 33.6% for the second.

Compared with `C[C@@H]1CCCN1CCNC(=O)N1CCC[C@@H]1[C@@H]1CCCC[C@@]1(C)O` [ZINC000897504395], `C[C@H]1CCCN1CC(=O)N(C)[C@H]1CCN(C(=O)C2CCOCC2)C1` [ZINC000936344871] is lower in remaining activity at 1 µM: 90.9% for the first, 82.7% for the second.

Compared with `FC(F)(F)c1ccnc([C@H]2CCN(C[C@@H]3C[C@H]3c3ccccc3)C2)n1` [ZINC000897616680], `CCN(C(=O)c1ccnc(C2CC2)n1)[C@H]1CCN(CC2CCC2)C1` [ZINC001033973784] is higher in remaining activity at 1 µM: 5.1% for the first, 43.3% for the second.

First: O=C(CN[C@H]1CCNC12CCC2)NCCN1CCc2ccccc21 [ZINC000903470913]
Second: CC(C)(CN1C(=O)N2CCC[C@@H]3C[C@@]32C1=O)N1CCc2ccccc2C1 [ZINC000924470947]
The remaining activity at 1 µM of the first is higher: 92.2% for the first, 45.5% for the second.

First: C[C@@H]1CN(C(=O)C2CN(C)CCN(C)C2)CC(C)(C)O1 [ZINC000906421824]
Second: CN1CC[C@@H](C(=O)N2CC[C@@]3(CCN(Cc4nnn(C)n4)C3)C2)C1 [ZINC001041828396]
The remaining activity at 1 µM of the first is higher: 127% for the first, 103% for the second.

Going from `CS(=O)(=O)N1CC(C(=O)N2CC(=O)N(CC(F)(F)F)C2)C1` [ZINC000907721339] to `CN1CC[C@H](C(=O)NC2CN(C(=O)Cc3ccc(F)cn3)C2)CC1=O` [ZINC000995125582], the remaining activity at 1 µM falls from 119% to 102%.

Going from `Cc1ccc(NC(=O)C23CCC(CC2)N3)cc1[N+](=O)[O-]` [ZINC000911907143] to `Cc1cc(C(=O)N2CC[C@H](N(C)Cc3ccc(C)c(C)c3)C2)on1` [ZINC000971070823], the remaining activity at 1 µM falls from 93.1% to 90.9%.

First: CCn1ncc2c1CCC[C@@H]2N[C@@H](C)Cc1ccccn1 [ZINC000925887162]
Second: CCN1CC[C@@H](NC(=O)c2ccnc(-n3cncn3)c2)C[C@@H]1C [ZINC000948091407]
The remaining activity at 1 µM of the first is lower: 27.4% for the first, 112% for the second.

First: O=C1CCCCN1C1CCN(C[C@H](O)C[C@]2(O)CCOC2)CC1 [ZINC000929842198]
Second: C[C@@H](O)CN1CC[C@H](C2CCN(C(=O)CN3CCOCC3)CC2)C1 [ZINC001039123057]
The remaining activity at 1 µM of the first is lower: 104% for the first, 115% for the second.

Compared with `O=C1[C@@H](N2CC[C@@H](C3OCCO3)C2)CCN1c1cccc(Br)c1` [ZINC000932000298], `CCN1CC[C@@H](N2CCC(NC(=O)c3cncnc3C)CC2)C1=O` [ZINC001002391793] is higher in remaining activity at 1 µM: 75.9% for the first, 90.1% for the second.

Compared with `CCOC(=O)[C@@H]1CCN(C[C@@H](O)COc2cccc(C)c2)C1` [ZINC000932649435], `O[C@H](CN1CC[C@@H](Cc2nccs2)C1)c1c(F)cccc1F` [ZINC000934332177] is lower in remaining activity at 1 µM: 69.5% for the first, 34% for the second.

Going from `Cc1csc2nc(CN[C@](C)(CO)Cc3ccc(F)cc3)cc(=O)n12` [ZINC000933438523] to `Cc1cc(C(=O)N2CC[C@H](NCc3cccc(Cl)c3F)C2)ncn1` [ZINC001018723708], the remaining activity at 1 µM rises from 28.1% to 101%.

`C[C@H]1CCCN1CC(=O)N(C)[C@H]1CCN(C(=O)CC(C)(C)O)C1` [ZINC000937267298] and `CN(C(=O)c1cccnn1)C1CN(C(=O)[C@H]2CCC[C@H]3CCCN32)C1` [ZINC000955102158] are the same in remaining activity at 1 µM: 111% for the first, 111% for the second.

First: Cc1nc(C)c(CC(=O)N2CC[C@H](NC(=O)c3cnn[nH]3)C2)c(O)n1 [ZINC000938242679]
Second: Cn1nc(C(=O)N[C@@H]2CCN(C(=O)Cc3cscn3)C2)ccc1=O [ZINC000942457739]
The remaining activity at 1 µM of the first is higher: 107% for the first, 89.4% for the second.

First: Cc1cc(NC(=O)C(=O)N2CC[C@@H](NC(=O)c3cncn3C)C2)no1 [ZINC000941361883]
Second: Cc1cnoc1C(=O)NC1CN(C(=O)[C@@H]2CCN(C)S2(=O)=O)C1 [ZINC000998978244]
The remaining activity at 1 µM of the first is higher: 111% for the first, 98.3% for the second.

First: Cc1cc(C)nc(C(=O)N2CC[C@H]2CNC(=O)[C@@H]2CCN(C)C2)c1 [ZINC000950078544]
Second: Cc1ccc(C(=O)NC[C@H]2CN(C(=O)[C@@H]3CCN(C)C3)CCCO2)o1 [ZINC001019525589]
The remaining activity at 1 µM of the first is higher: 108% for the first, 85% for the second.

Compared with `CN(C(=O)c1c[nH]c(=O)cn1)C1CN(C(=O)c2n[nH]c3c2CCC3)C1` [ZINC000955144887], `CCC(=O)N1CCN([C@H]2CCN(C(=O)c3c[nH]c(=O)cn3)C2)CC1` [ZINC000956566890] is higher in remaining activity at 1 µM: 96.9% for the first, 112% for the second.

Going from `O=C(C1CCCC1)N1CCC[C@H]([C@@H]2CCN(C/C=C\Cl)C2)C1` [ZINC000961091031] to `O=C([C@@H]1CCCN(CC(F)F)C1)N1CC[C@]2(CCN(CCO)C2)C1` [ZINC001041605786], the remaining activity at 1 µM rises from 33% to 110%.

First: Cc1c(C(=O)N[C@@H]2CN(C(=O)C3=COCCC3)C[C@@H]2O)cnn1C [ZINC000961583379]
Second: CCc1c(C(=O)N[C@@H]2CN(C(=O)c3n[nH]cc3C)C[C@@H]2O)cnn1C [ZINC000968717635]
The remaining activity at 1 µM of the first is lower: 91.1% for the first, 94.6% for the second.

Compared with `O=C([C@H]1CCOC1)N1CCOC2(C1)CN(C(=O)[C@@]1(F)CCOC1)C2` [ZINC000965338365], `O=C(C1CC2(CCC2)C1)N1CCCN(C[C@@H](O)c2ccccc2)CC1` [ZINC000981787500] is lower in remaining activity at 1 µM: 99.1% for the first, 48.4% for the second.

Compared with `COc1ccc(C(=O)N[C@@H]2CN(C(=O)C3(C)CCC3)C[C@@H]2O)nn1` [ZINC000970553575], `Cn1nccc1C(=O)N1C[C@@H](O)[C@H](NC(=O)c2c[nH]nc2C2CC2)C1` [ZINC001025444165] is higher in remaining activity at 1 µM: 92.8% for the first, 95.7% for the second.

Compared with `CN(C[C@H]1CCCCO1)[C@@H]1CCN(C(=O)c2nc(Cl)cs2)C1` [ZINC000972168981], `CCN(C(=O)c1cnccn1)[C@@H]1CCN(CC2CCCCCC2)C1` [ZINC001033739722] is lower in remaining activity at 1 µM: 63.4% for the first, 24.6% for the second.

`COCCN1C[C@H](C(=O)N[C@H]2C[C@H](NC(=O)c3cn[nH]c3)C2)CC1=O` [ZINC000973057271] and `C[C@@H]1CCN(CC(=O)N[C@H]2C[C@H](NC(=O)c3cnnc(O)c3)C2)C1` [ZINC000973375109] are the same in remaining activity at 1 µM: 111% for the first, 111% for the second.

Compared with `Cn1nncc1C(=O)NC[C@H]1CC[C@@H](NC(=O)c2cnns2)C1` [ZINC000981250423], `Cc1c(C(=O)NC2CN(C(=O)c3cnns3)C2)ccc2cncn12` [ZINC000995014137] is higher in remaining activity at 1 µM: 97.2% for the first, 123% for the second.

Going from `CC(C)=CC(=O)N1CC[C@@H](CNC(=O)c2ccn(CCN(C)C)n2)C1` [ZINC000982403760] to `O=C(NCC1CCN([C@H]2CCNC2=O)CC1)c1ccn(C(F)F)n1` [ZINC001001445660], the remaining activity at 1 µM falls from 104% to 92.1%.

Compared with `CCn1ncnc1CN1CCCN(C(=O)C[C@H]2CC(=O)NC2=O)CC1` [ZINC000989806749], `Cn1ccc(N2CC[C@@H](N[C@H]3CCN(C(=O)CC4CCC4)C3)C2=O)n1` [ZINC001018665695] is higher in remaining activity at 1 µM: 118% for the first, 120% for the second.

First: CCc1noc(C)c1C(=O)NC1CN(C(=O)[C@H]2CCCCN2C)C1 [ZINC000991393621]
Second: CCc1nnsc1C(=O)NCC1CN(C(=O)[C@H]2CCCN2C)C1 [ZINC001003018745]
The remaining activity at 1 µM of the first is higher: 116% for the first, 85.7% for the second.

Going from `CC(C)NC1CCN(C(=O)Cn2cnc(C(N)=O)n2)CC1` [ZINC000996610565] to `CN1CCC[C@H]1C(=O)NCC1(O)CN(C(=O)CCc2ncccn2)C1` [ZINC001042098162], the remaining activity at 1 µM falls from 114% to 102%.

First: Cc1n[nH]cc1C(=O)NC1CN(C(=O)[C@H]2C[C@@H]3CCCCN3C2)C1 [ZINC000997292482]
Second: O=C(NCC1CN(C(=O)[C@H]2CC[C@H]3CCCCN32)C1)c1cnccn1 [ZINC001000730978]
The remaining activity at 1 µM of the first is higher: 87.9% for the first, 81.3% for the second.

Compared with `Cc1cccc(F)c1C(=O)NCC1CCN(CCn2cncn2)CC1` [ZINC001002178741], `Cc1ccnc2nc(C(=O)NCC3CN(CCCC4CCC4)C3)nn12` [ZINC001032169623] is lower in remaining activity at 1 µM: 109% for the first, 92.8% for the second.

First: O=C(Cn1cnnn1)N1CC(CNC(=O)C23CCCN2CCC3)C1 [ZINC001003297636]
Second: C[C@@H](NC(=O)c1cnnn1C)C1CN(C(=O)C23CCCN2CCC3)C1 [ZINC001006004942]
The remaining activity at 1 µM of the first is lower: 72.3% for the first, 126% for the second.

First: CC[C@@H](C(N)=O)N1CCC(NC(=O)[C@H]2Cc3ccc(Cl)cc32)CC1 [ZINC001004070100]
Second: O=C1NCC[C@@H]1C(=O)N[C@H]1CCN(CCn2cc(Cl)cn2)C1 [ZINC001015510639]
The remaining activity at 1 µM of the first is lower: 85.5% for the first, 87.4% for the second.

Going from `C[C@@]1(C(=O)N[C@H]2CC23CCN(CC(=O)NC2CC2)CC3)CCNC1=O` [ZINC001016825715] to `Cc1nc(O)[nH]c1C(=O)NC[C@H]1CCN([C@H](C)C(=O)NC2CC2)C1` [ZINC001028614115], the remaining activity at 1 µM rises from 106% to 115%.

Going from `O=C([C@H]1Cc2ccccc21)N1CC[C@H](NCc2ccncc2Cl)C1` [ZINC001019309159] to `Cc1ccccc1CN[C@H]1C[C@H](NC(=O)c2cn(C)c(=O)nc2O)C1` [ZINC001021041334], the remaining activity at 1 µM falls from 99.6% to 86.2%.

First: Cc1nc(CN[C@H]2C[C@H](NC(=O)Cn3ncn(C)c3=O)C2)cs1 [ZINC001020327691]
Second: Cn1cc(CN[C@H]2C[C@H](NC(=O)c3cccc(C(N)=O)n3)C2)cn1 [ZINC001021109191]
The remaining activity at 1 µM of the first is lower: 102% for the first, 106% for the second.

First: C[C@@H](C(N)=O)N1CCC[C@H](CNC(=O)c2nn(C)c3c2CCCC3)C1 [ZINC001023604137]
Second: CCc1ocnc1C(=O)NC[C@H]1CN(C[C@@H](C)CC)CCO1 [ZINC001035320653]
The remaining activity at 1 µM of the first is lower: 89.3% for the first, 119% for the second.

First: Cc1cc(C(=O)NC[C@@H]2CCN(CC(=O)Nc3cnccn3)C2)on1 [ZINC001028403773]
Second: O=C(NCC1(O)CN(C(=O)CCn2ccnc2)C1)[C@H]1CC=CCC1 [ZINC001041431730]
The remaining activity at 1 µM of the first is higher: 109% for the first, 98.6% for the second.

Going from `COc1ccnc(CN2CCC3(CC2)CCN(C(=O)C(C)C)C3)c1` [ZINC001040612984] to `COCCC(=O)N1CC[C@@](O)(CNC(=O)[C@@H]2CCN(C)C2=O)C1` [ZINC001040614201], the remaining activity at 1 µM rises from 100% to 117%.
